{"source": "patent US8822640B2", "about": "“Tetrameric streptavidin mutein with reversible biotin binding capability” (UTI Limited Partnership, priority 2011, dated 2014)", "key": {"[1]": {"assay": "BIAcore biosensor kinetic parameters of biotin binding in streptavidin muteins", "details": "for ka or kon / kd or koff / Kd: BIAcore, biotinylated IgG on chip, mutein injected; for t1/2, half-life of biotin in the SAV-biotin complex: estimated as 0.693/koff/60; for Kd: read-out: Kd (biotin binding affinity)", "procedure": "The kinetic parameters for these muteins were determined using the BIAcore biosensor. Biotinylated IgG proteins were immobilized to the sensor chip and purified streptavidin muteins were injected to determine the binding properties:\n(§1) Other methods. BIAcore biosensor for determining the kinetic parameters, preparation of streptavidin-agarose matrix and purification of biotinylated proteins were performed as previously described (Wu and Wong, 2005a; Wu and Wong, 2005b)."}, "[2]": {"assay": "Ligand energy inspector, Molegro molecular viewer (MolDock score), biotin binding pocket of subunit A", "procedure": "Replacement of residues in loop7-8 of the wild-type streptavidin results in allowing loop7-8 to become flexible and changing the relative orientation of subunits in the tetrameric structure. These structural changes lead to lowering of the biotin binding affinity in the 8-aa-loop-H127C mutein. The strength of biotin interaction with streptavidin was analyzed using the ligand energy inspector function in the Molegro molecular viewer program (Thomsen and Christensen, 2006). The more the negative value indicates the stronger interaction. […] In reference to the wild-type streptavidin, a few residues in the 8-aa-loop-H127C mutein have a little bit stronger interactions with biotin (data not shown). However, the net outcome is that the 8-aa-loop-H127C mutein has a weaker biotin binding affinity."}, "[3]": {"system": "biotinylated protein G and biotinylated IgG", "assay": "Mutein-agarose affinity matrix: purification of biotinylated proteins, matrix stability and reuse", "details": "comparison of FIGS. 7 and 10", "procedure": "as §1\nStable subunit interactions in the 8-aa-loop-H127 mutein. The purified 8-aa-loop-H127C mutein can be immobilized to the agarose matrix with an estimated concentration of 3.8 mg/ml of settled agarose beads. […] Since it is likely that only one subunit in an tetrameric 8-aa-loop-H127C mutein was chemically coupled to the matrix (the other three subunits associated with the immobilized subunit via non-covalent interactions), this observation illustrates that the subunit interactions between the subunits in the tetrameric 8-aa-loop-H127C mutein were stable enough and the non-covalently associated subunits were not washed off from the column under the conditions used for the binding, washing and elution processes.\nApplication of the 8-aa-loop-H127C mutein-agarose matrices for purification of biotinylated protein G and biotinylated IgG. […] The bound biotinylated proteins could be eluted off from the column using 4 mM biotin (FIGS. 7 and 8)."}, "[4]": {"assay": "Binding to biotin-agarose, elution with 4 mM biotin, rebinding after dialysis", "procedure": "In order to characterize these muteins, it is essential to purify each of these muteins for further analyses. […] After dialysis to remove any biotin from the pooled elution fraction, the purified muteins could rebind to the biotin-agarose matrix and could be eluted off again by 4 mM biotin in the buffer. This indicates the reversible biotin binding capability in these muteins.\nProduction and affinity purification of streptavidin muteins. Bacillus subtilis cells carrying the expression vectors were cultivated in super-rich medium (Wu et al., 2002) at 30° C. for 9-12 hours. Culture supernatant was collected by centrifugation and streptavidin muteins were affinity purified using biotin-agarose as described previously (Wu and Wong, 2005a).\nBound biotin in the 8-aa-loop-H127C mutein can be removed by dialysis. Purified 8-aa-loop-H127C muteins eluted from the biotin agarose by 4 mM biotin will contain bound biotin. If biotin binding is reversible, bound biotin should be removable by dialysis. Indeed, the dialyzed 8-aa-loop-H127C muteins could rebind to the biotin-agarose column and could be eluted off from the column by 4 mM biotin in the elution buffer (FIG. 5). […] Some 8-aa-loop-H127C mutein molecules could be observed in the flow-through fraction. This is probably because of overloading the column with excess muteins."}, "[5]": {"details": "literature values, cited from earlier work"}, "[6]": {"details": "known value, cited from earlier work"}}, "note": "Entries after “also recorded” stand apart in the source; their conditions may differ. Like-named read-outs stand apart in the source and are kept apart here.", "data": [{"substance": "6-aa-loop mutein: streptavidin mutein with engineered loop7-8 D S N G S G (SEQ ID NO: 16) (DSNGSG; listed as Bacillus subtilis)", "values": [{"measurement": "ka or kon", "setting": "[1]", "value": 24300, "unit": "M⁻¹ s⁻¹"}, {"measurement": "kd or koff", "setting": "[1]", "value": "7.59e-05", "unit": "s⁻¹"}, {"measurement": "t1/2, half-life of biotin in the SAV-biotin complex", "setting": "[1]", "value": 152, "unit": "min"}]}, {"substance": "8-aa-loop-H127C mutein: tetrameric streptavidin mutein, loop7-8 replaced by D S S N G S D G, with H127C mutation (SEQ ID NO: 14) (DSSNGSDG; listed as Bacillus subtilis)", "values": [{"measurement": "Difference (wild-type − mutein), Asn 23", "setting": "[2]; residue contribution", "value": "−1.1"}, {"measurement": "Difference (wild-type − mutein), Asp128", "setting": "[2]; residue contribution", "value": "−3.3"}, {"measurement": "Difference (wild-type − mutein), Leu 25", "setting": "[2]; residue contribution", "value": "−0.8"}, {"measurement": "Difference (wild-type − mutein), Lys 121 (from subunit D)", "setting": "[2]; residue contribution", "value": "−1.3"}, {"measurement": "Difference (wild-type − mutein), Ser 45", "setting": "[2]; residue contribution", "value": "−1.4"}, {"measurement": "Difference (wild-type − mutein), Trp 120 (from subunit D)", "setting": "[2]; residue contribution", "value": "−10.5"}, {"measurement": "Difference (wild-type − mutein), MolDock score", "setting": "[2]; total", "value": "−14.4"}, {"measurement": "ka or kon", "setting": "[1]", "value": 22100, "unit": "M⁻¹ s⁻¹"}, {"measurement": "kd or koff", "setting": "[1]", "value": 0.000428, "unit": "s⁻¹"}, {"measurement": "Kd", "setting": "[1]", "value": 19, "unit": "nM"}, {"measurement": "t1/2, half-life of biotin in the SAV-biotin complex", "setting": "[1]", "value": 27, "unit": "min"}, {"measurement": "binding capacity of the matrix for biotinylated protein G", "setting": "[3]", "value": "much better binding capacity than the matrix with the Roche streptavidin mutein"}, {"measurement": "reversible biotin binding", "setting": "[4]", "value": "can bind to biotin-agarose and can be eluted off from the matrix by 4 mM biotin; also recorded: biotin binds to this protein in a reversible manner"}]}, {"substance": "W120A mutein: streptavidin mutein with Trp-120 changed to alanine [reference compound]", "values": [{"measurement": "Kd", "setting": "[5]; read-out: dissociation constant (Kd) for biotin", "value": 3, "unit": "nM"}]}, {"substance": "Wild-type streptavidin: 52,800 dalton tetrameric protein from Streptomyces avidinii, SEQ ID NO:1", "values": [{"measurement": "isoelectric point (pI)", "setting": "[6]", "value": "~5"}, {"measurement": "isoelectric point (pI)", "setting": "[6]; listed as natural streptavidin", "value": "5-6"}, {"measurement": "dissociation constant (Kd) for biotin", "setting": "[5]", "value": "10^−13 to 10^−14 M"}]}, {"substance": "ΔWHC: streptavidin mutein with Trp-120 deleted (loop T T E A N A K) and H127C mutation (SEQ ID NO: 13) (TTEANAK; listed as Bacillus subtilis)", "values": [{"measurement": "ka or kon", "setting": "[1]", "value": 49600, "unit": "M⁻¹ s⁻¹"}, {"measurement": "kd or koff", "setting": "[1]", "value": 0.0004, "unit": "s⁻¹"}, {"measurement": "Kd", "setting": "[1]; listed as ΔW-HC", "value": 8.1, "unit": "nM"}, {"measurement": "Kd", "setting": "[1]", "value": "~1", "unit": "nM"}, {"measurement": "t1/2, half-life of biotin in the SAV-biotin complex", "setting": "[1]", "value": 28.9, "unit": "min"}]}]}
